A short description of series [1]: In vitro proton relaxivity in human serum. Particulars: 60 MHz, 40° C. Format: physicochemical. The method, then: Both the longitudinal and transverse relaxation times were measured in human serum (BioreclamationIVT, Cat #HMSRM-M) to reflect the efficiency of the Mn(II) based chelates in an environment close to physiological. The relaxivity assessment was carried out at a concentration ranging from 5 to 0 mM Mn(II), at 40° C. using a Minispec Mq benchtop NMR relaxometer (Bruker Instruments, Rheinstetten, Germany) operating at 60 MHz (1.4 T) with an inversion recovery pulse sequence. The longitudinal and transverse relaxivities of the complexes (e.g., r1 and r2 respectively) were calculated by plotting the reciprocal of their relaxation time versus the manganese concentration as determined via ICP-MS (Spectro Arcos FHS12, S/N 10003910 or S/N 12006120) for each Mn(II) based chelates. The dependence of T1 by B0 (i.e., magnetic field) applied was assessed via the acquisition of ^1H Nuclear Magnetic Relaxation Dispersion (NMRD) profiles. A dedicated Stelar SMARTracer Fast Field Cycling relaxometer (0.01-10 MHz) and a Bruker WP80 NMR electromagnet adapted to variable field measurements (20-80 MHz) and controlled by a SMARTracer PC-NMR console was used to record the ^1H NMRD profiles over an extended range of Larmor Frequencies (from 0.01 to 80 MHz). The temperature was monitored by a VTC91 temperature control unit and maintained by a gas flow. The temperature was determined by previous calibration with a Pt resistance temperature probe. High field relaxivities were measured on a Bruker AVANCE NMR spectrometer at 400 MHz. A total of 25 data points per NMRD profile were recorded at each temperature, pH 6.9 and with a manganese concentration in the samples of 6.99, 6.78 and 4.45 mM for the prior art Mn Chelate, Mn Chelate 4 and Mn Chelate 3, respectively. The concentration of Mn(II) in all samples was verified by Bulk Magnetic Susceptibility (BMS) measurements. Relaxivity was computed by subtracting the relaxation rate of the medium (distilled water) from the relaxation rate of the Mn(II) complex solution at each field strength and dividing the difference by the manganese concentration verified by BMS measurements.
The linear fit (R2>0.99 for all compounds examined) of 1/T1 and 1/T2 as a function of Mn concentration generated the r1 or r2 values reported in Table 4 for human serum.

Series [2] is described as follows: Dissociation kinetics via Cu2+ transmetallation (UV-Vis absorbance). Format: physicochemical. Particulars: for overall kinetic inertness: Cu2+ and Zn2+ transmetallation, all experimental conditions; for nature of the kinetic dissociation curve, Cu2+ exchange: UV-Vis absorbance at 300 nm, all pH and Cu2+ concentrations assessed; for kobs1 / kobs2: 25° C., 0.2 mM chelate; for conversion of Mn chelate during transmetallation: competing Cu2+, FIGS. 9 and 10. The method, then:
Kinetic inertness was evaluated at slightly acidic pH due to the slow rate of dissociation of the paramagnetic complex at physiological pH and to the potential hydrolysis of the metal ions at the concentrations used for the experiments and at pH values close to physiological.
The dissociation kinetics of the prior art Mn Chelate, Mn Chelate 4 and Mn Chelate 3 at a concentration of 0.2 mM was assessed via Cu^2+ transmetallation recording the time-dependent change of the UV-Vis absorbance in the presence of an excess of competing metal ion (10 and 40 equivalents of Cu^2+); at 25° C. and different pH (pH: 5.0; 5.2; 5.4). For all assessments, the reaction mixture contained 0.15 M NaCl; 50 mM NMP. The ? for the acquisition of the UV-Vis spectra was selected based on the difference between the observed absorbance for the Mn(II) based chelates (e.g., prior art Mn Chelate, Mn Chelate 3 and Mn Chelate 4) and the newly formed Cu^2+-complex in order to have the best differentiation between the two chemical species. The UV-Vis spectra were acquired at ? =300 nm on a Perkin-Elmer Lambda 19 spectrophotometer. Indeed, the displacement of Mn(II) ion induced by Cu^2+ led to an increase of the observed absorbance at ? =300 nm for all Mn(II) based chelates in all experimental conditions. This increase is due the formation of the Cu^2+-complex.
For any of the transmetallation experiments carried out with the prior art Mn Chelate (e.g., at different pH; different Zn^2+ or Cu^2+ concentration) it was evident that the variation of the relaxation rate T1 (for the Zn^2+-exchange; FIG. 4) or the variation of the UV-Vis absorbance (for the Cu^2+-exchange; FIG. 5) caused by competing metal ion was a “single phase” process better described as a mono-exponential function. […] The rate of dissociation described by kobs was calculated via equation (1) where [MnL]tot is the total concentration of Mn(II) based chelates and t is the observation time.
These biphasic kinetic curves could be mathematically well fitted with the biexponential equation (2) where A is the observed absorbance; b, A1 and A2 are constants specific for the biphasic dissociation process for a Mn(II) based chelate; kobs1 and kobs2 are the rate constants describing the biphasic dissociation and t is the observation time. A=b−A1e^−k^obs1^t−A2e^−k^obs2t (Equation 2)
The rates of the biphasic dissociation for Mn Chelate 3 and Mn Chelate 4 described by kobs1 and kobs2 and of the monophasic dissociation for the prior art Mn Chelate described by kobs were calculated via equation (2) and (1) respectively for the different experimental conditions utilized in the set of experiments.
From the qualitative comparison of the kinetic curves and preliminary kobs it was evident that Mn Chelate 3 and Mn Chelate 4 dissociate with a different mechanism described by a biexponential function and at a slower rate compared to the prior art Mn Chelate. To quantitatively compare the kinetic inertness of these Mn(II) based chelates, the direct comparison of the evolution of the UV-Vis absorbance at 300 nm was recorded for the Cu^2+ exchange reaction. Direct comparison of the UV-Vis absorbance allowed quantification of the conversion of the Mn(II) based chelates into Cu^2+ based chelates during the transmetallation reaction which can be correlated to the kinetic inertness of the Mn(II) complex. The “conversion” was calculated following equation (3), where At is the absorbance at a time t (or end of the reaction), A0 is the absorbance at time zero (or beginning of the acquisition) and Aeq is the absorbance at the equilibrium.

SMILES strings stand for the structures. Entries after “also recorded” stand apart in the source; their conditions may differ.

As to `CN(C[C@H](O)[C@@H](O)[C@H](O)[C@H](O)CO)C(=O)CCCN1CCN2Cc3cccc(n3)CN(CC1)C(CCC(=O)N(C)C[C@H](O)[C@@H](O)[C@H](O)[C@H](O)CO)C(=O)[O][Mn][O]C(=O)C2CCC(=O)N(C)C[C@H](O)[C@@H](O)[C@H](O)[C@H](O)CO` (stereo partly shown) [Mn Chelate 3], the “r1 (longitudinal relaxivity)” value in series [1] amounted to 8.0 mM⁻¹ s⁻¹. In series [2], the overall kinetic inertness entry is recorded as “evident improvement in overall kinetic inertness” and the “nature of the kinetic dissociation curve, Cu2+ exchange” value (from here on “nature … Cu2+ exchange”) is on record as “biphasic nature”. In addition, in series [2] (pH = 5.0, CCu2+ 0.002 M), the kobs1 was 0.483 min⁻¹ and the kobs2 worked out at 0.0023 min⁻¹. In series [2] (pH = 5.0, CCu2+ 0.008 M), this compound showed a kobs1 of 0.378 min⁻¹ and a kobs2 of 0.0024 min⁻¹. For the same compound, in series [2] (pH = 5.2, CCu2+ 0.002 M), the kobs1 is 0.303 min⁻¹ and the kobs2 stood at 0.0015 min⁻¹.

As for `CN1CCN2Cc3cccc(n3)CN(CC1)C(CCC(=O)N(C)C[C@H](O)[C@@H](O)[C@H](O)[C@H](O)CO)C(=O)[O][Mn][O]C(=O)C2CCC(=O)N(C)C[C@H](O)[C@@H](O)[C@H](O)[C@H](O)CO` (stereo partly shown) [Mn Chelate 4], in series [1], the “r1 (longitudinal relaxivity)” value came out at 5.3 mM⁻¹ s⁻¹. Also, the overall kinetic inertness result in series [2] was “evident improvement in overall kinetic inertness; also recorded: most kinetically inert compound examined”. Besides, in series [2], the “nature … Cu2+ exchange” value is recorded as “biphasic nature”. Also, the “conversion of Mn chelate during transmetallation” value in series [2] is on record as “dissociates even slower”. For the same compound, the kobs1 was 0.340 min⁻¹ in series [2] (pH = 5.0, CCu2+ 0.002 M); 0.190 min⁻¹ in series [2] (pH = 5.0, CCu2+ 0.008 M); 0.240 min⁻¹ in series [2] (pH = 5.2, CCu2+ 0.002 M); 0.201 min⁻¹ in series [2] (pH = 5.4, CCu2+ 0.002 M). Moreover, the kobs2 in series [2] (pH = 5.0, CCu2+ 0.002 M) is 0.0013 min⁻¹; in series [2] (pH = 5.0, CCu2+ 0.008 M) it was 0.0009 min⁻¹; in series [2] (pH = 5.2, CCu2+ 0.002 M), 0.0009 min⁻¹; in series [2] (pH = 5.4, CCu2+ 0.002 M) it was 0.001 min⁻¹.

On to `CN1CCN2CC(=O)[O][Mn][O]C(=O)CN(CC1)Cc1cccc(n1)C2` [Prior Art Mn Chelate, reference compound], for which the “r1 (longitudinal relaxivity)” value in series [1] was found to be 3.0 mM⁻¹ s⁻¹. Further, the “nature … Cu2+ exchange” value in series [2] is “single phase”. In addition, the “conversion of Mn chelate during transmetallation” value in series [2] is “reaches a full conversion at much shorter time point than Mn Chelate 3”. The kobs1 in series [2] (pH = 5.0, CCu2+ 0.002 M) turned out to be 0.034 min⁻¹; in series [2] (pH = 5.0, CCu2+ 0.008 M), 0.035 min⁻¹; in series [2] (pH = 5.2, CCu2+ 0.002 M) it was 0.022 min⁻¹; in series [2] (pH = 5.4, CCu2+ 0.002 M), 0.017 min⁻¹.

Values taken from patent US11884686B2, “Chelate compounds” (priority 2016, dated 2024).
